Tests used:
[1] = Inhibition of HIV2 reverse transcriptase; design: species or system Human immunodeficiency virus 2
[2] = biological target: Human immunodeficiency virus type 1 reverse transcriptase (Human immunodeficiency virus 1, UniProt Q72547); experiment: Inhibition of HIV1 reverse transcriptase

SMILES	IC50 [1]	IC50 [2]
CC[C@H]1CN2CCc3cc(OC)c(OC)cc3[C@@H]2C[C@@H]1CC1=NCCc2cc(OC)c(OC)cc21		14 µM
CC(=O)O[C@H]1CC[C@]2(C)[C@H]3CC[C@]4(C)C(=CC[C@@]5(C(=O)O)CCC(C)(C)C[C@H]54)[C@]3(C)CC[C@H]2C1(C)C [ACETYL ALEURITOLIC ACID]	> 200 µM	136 µM
CC1(C)CC[C@]2(C(=O)O)CC=C3[C@]4(C)CC[C@H]5C(C)(C)[C@@H](O)CC[C@]5(C)[C@H]4CC[C@@]3(C)[C@@H]2C1 [ALEURITOLIC ACID]	78.7 µM	24.9 µM
COc1cc2c(ccc3c4cc(OC)c(OC)cc4c[n+](C)c23)cc1O [FAGARONINE]		13 µM

These reach a lower IC50 [2]. Values come first.

IC50 [1]	IC50 [2]	SMILES
59 µM	3.7 µM	CC1(C)CC[C@]2(C(=O)O)CC=C3[C@]4(C)CC[C@H]5C(C)(C)[C@@H](OC(=O)c6ccc(O)cc6)C[C@@H](O)[C@]5(C)[C@H]4CC[C@@]3(C)[C@@H]2C1
56.7 µM	3.4 µM	CC1(C)CC[C@]2(C(=O)O)CC=C3[C@]4(C)CC[C@H]5C(C)(C)[C@@H](O)[C@H](O)C[C@]5(C)[C@H]4CC[C@@]3(C)[C@@H]2C1
28.9 µM	3.7 µM	CC1(C)CC[C@]2(C(=O)O)CC=C3[C@]4(C)CC[C@H]5C(C)(C)[C@@H](OC(=O)c6ccc(O)cc6)[C@H](OC(=O)c6ccc(O)cc6)C[C@]5(C)[C@H]4CC[C@@]3(C)[C@@H]2C1
53.1 µM	4.9 µM	CC1(C)CC[C@]2(C(=O)O)CC=C3[C@]4(C)CC[C@H]5C(C)(C)[C@@H](O)C[C@@H](O)[C@]5(C)[C@H]4CC[C@@]3(C)[C@@H]2C1

— ChEMBL document CHEMBL1149052, “Pentacyclic triterpenes derived from Maprounea africana are potent inhibitors of HIV-1 reverse transcriptase” (J Nat Prod, 1994)
